Experimental data as given in patent publication US20230355647A1, “Marker for determining anti-cancer effects of mitochondrial oxidative phosphorylation pathway inhibitor” (NANJING SHIJIANG MEDICINE TECHNOLOGY CO., LTD, priority 2020, published 2023).

What was measured:
U-251 MG = test: Cell viability (CellTiter-Glo), U-251 MG; assay type: cell-based; conditions: Homo sapiens; U-251 MG cell line, 3-4 days of culture
Protocol: (§1) Cell viability was detected using the Promega CellTiter-Glo kit, the kit reflected cell viability by directly measuring intracellular ATP content. The inhibitory effect (IC50 value) of Gboxin, a mitochondrial oxidative phosphorylation pathway inhibitor, on different tumor cell lines was tested in the Example. The name, source, and culture condition of each tumor cell line were as follows:
Cell line U-251 MG (ECACC, No. 9063001) was cultured in EMEM medium containing 2 mM glutamine, 1% NEAA, 1 mM sodium pyruvate (NaP) and 10% fetal bovine serum (+P/S).
(§2) The above tumor cells were cultured in the relevant medium (+P/S), and incubated for 3 h, then the gradient diluted Gboxin was added, and IC50 (50% inhibiting concentration) was measured after 3-4 days of culture.

NCI-H1155 = test: Cell viability (CellTiter-Glo), NCI-H1155; assay type: cell-based; conditions: Homo sapiens; NCI-H1155 cell line, 3-4 days of culture
Protocol: as §1
Cell line NCI-H1155 (ATCC, No. CRL-5818) was cultured in serum-free ACL-4 medium (+P/S).
as §2

MIA PaCa-2 = test: Cell viability (CellTiter-Glo), MIA PaCa-2; assay type: cell-based; conditions: Homo sapiens; MIA PaCa-2 cell line, 3-4 days of culture
Protocol: as §1
Cell line MIA PaCa-2 (ATCC, No. CRL-1420) was cultured in 10% fetal bovine serum-containing DMEM medium (+P/S).
as §2

COLO 320HSR = test: Cell viability (CellTiter-Glo), COLO 320HSR; assay type: cell-based; conditions: Homo sapiens; COLO 320HSR cell line, 3-4 days of culture
Protocol: as §1
Cell line COLO 320HSR (ATCC, No. CCL-220.1) was cultured in 10% fetal bovine serum-containing RPMI1640 medium (+P/S).
as §2

A-375 = test: Cell viability (CellTiter-Glo), A-375; assay type: cell-based; conditions: Homo sapiens; A-375 cell line, 3-4 days of culture
Protocol: as §1
Cell line A-375 (ATCC, No. CRL-1619) was cultured in 10% fetal bovine serum-containing DMEM medium (+P/S).
as §2

mTOR pathway (p-S6) = test: Western Blot of p-S6 protein in tumor cells after inhibitor treatment; assay type: cell-based, human; conditions: 1 μM or 3 μM Gboxin, 1 μM Oligomycin A, 12 h; for activity of mTOR pathway (p-S6): FIG. 3; for content of p-S6 protein (activity of mTOR pathway): FIG. 2
Protocol: The inhibition of mitochondrial oxidative phosphorylation pathway could cause the activation of ATF4 stress pathway and the decrease of mTOR pathway activity, the activity of the mTOR pathway was reflected by the expression level of phosphorylated ribosomal protein S6 (ie, p-S6).
(§3) The tumor cells NCI-H82, G-401 and WSU-DLCL2 were cultured in the relevant 10% FBS-containing medium (+p/s), and incubated overnight, then 1 μM Gboxin, 3 μM Gboxin or 1 μM Oligomycin A as shown in FIG. 2 was added. After 12 h of incubation, the content of ATF4 and p-S6 protein was detected using Western Blot, the experiment result was shown in FIG. 2.
as §3, with “The cell lines SF126, CFPAC-1” for “The tumor cells NCI-H82, G-401”, “and 786-O” for “and WSU-DLCL2”, “FIG. 3” for “FIG. 2”, “FIG. 3.” for “FIG. 2.”

SNU-398 = test: Cell viability (CellTiter-Glo), SNU-398; assay type: cell-based; conditions: Homo sapiens; SNU-398 cell line, 3-4 days of culture
Protocol: as §1
Cell line SNU-398 (ATCC, No. CRL-2233) was cultured in 10% fetal bovine serum-containing RPMI1640 medium (+P/S).
as §2

CHL-1 = test: Cell viability (CellTiter-Glo), CHL-1; assay type: cell-based; conditions: Homo sapiens; CHL-1 cell line, 3-4 days of culture
Protocol: as §1
Cell line CHL-1 (ATCC, No. CRL-9446) was cultured in 10% fetal bovine serum-containing DMEM medium (+P/S).
as §2

22RV1 = test: Cell viability (CellTiter-Glo), 22RV1; assay type: cell-based; conditions: Homo sapiens; 22RV1 cell line, 3-4 days of culture
Protocol: as §1
Cell line 22RV1 (ATCC, No. CRL-2505) was cultured in 10% fetal bovine serum-containing RPMI1640 medium (+P/S).
as §2

NCI-H2081 = test: Cell viability (CellTiter-Glo), NCI-H2081; assay type: cell-based; conditions: Homo sapiens; NCI-H2081 cell line, 3-4 days of culture
Protocol: as §1
Cell line NCI-H2081 (ATCC, No. CRL-5920) was cultured in 5% fetal bovine serum-containing HITES medium (+P/S).
as §2

AM-38 = test: Cell viability (CellTiter-Glo), AM-38; assay type: cell-based; conditions: Homo sapiens; AM-38 cell line, 3-4 days of culture
Protocol: as §1
Cell line AM-38 (JCRB, No. IF050492) was cultured in EMEM medium containing 20% heat-inactivated fetal bovine serum (+P/S).
as §2

PANC-1 = test: Cell viability (CellTiter-Glo), PANC-1; assay type: cell-based; conditions: Homo sapiens; PANC-1 cell line, 3-4 days of culture
Protocol: as §1
Cell line PANC-1 (ATCC, No. CRL-1469) was cultured in 10% fetal bovine serum-containing DMEM medium (+P/S).
as §2

LS 180 = test: Cell viability (CellTiter-Glo), LS 180; assay type: cell-based; conditions: Homo sapiens, LS180; LS 180 cell line, 3-4 days of culture
Protocol: as §1
Cell line LS 180 (ATCC, No. CL-187) was cultured in 10% fetal bovine serum-containing EMEM medium (+P/S).
as §2

HH = test: Cell viability (CellTiter-Glo), HH; assay type: cell-based; conditions: Homo sapiens; HH cell line, 3-4 days of culture
Protocol: as §1
Cell line HH (ATCC, No. CRL-2105) was cultured in 10% fetal bovine serum-containing RPMI1640 medium (+P/S).
as §2

HCC15 = test: Cell viability (CellTiter-Glo), HCC15; assay type: cell-based; conditions: HCC15 cell line, 3-4 days of culture
Protocol: as §1
Cell line HCC15 (KCLB, No. 70015) was cultured in 10% fetal bovine serum-containing RPMI1640 medium (+P/S).
as §2

U-87 MG = test: Cell viability (CellTiter-Glo), U-87 MG; assay type: cell-based; conditions: Homo sapiens; U-87 MG cell line, 3-4 days of culture
Protocol: as §1
Cell line U-87 MG (ATCC, No. HTB-14) was cultured in 10% fetal bovine serum-containing EMEM medium (+P/S).
as §2

Structure (SMILES): CCc1n(CC(=O)O[C@@H]2C[C@H](C)CC[C@H]2C(C)C)c2ccccc2[n+]1C.[Cl-] [Gboxin]
- IC50 (U-251 MG): 16.7 µM
- IC50 (NCI-H1155): 8.84 µM
- IC50 (MIA PaCa-2): 2.57 µM
- IC50 (COLO 320HSR): > 30 µM
- IC50 (A-375): 4.65 µM
- activity of mTOR pathway (p-S6) (mTOR pathway (p-S6); 786-O cells): no significant changes
- activity of mTOR pathway (p-S6) (mTOR pathway (p-S6); CFPAC-1 cells): no significant changes
- content of p-S6 protein (activity of mTOR pathway) (mTOR pathway (p-S6); G-401 cells): decreased
- content of p-S6 protein (activity of mTOR pathway) (mTOR pathway (p-S6); NCI-H82 cells): decreased
- activity of mTOR pathway (p-S6) (mTOR pathway (p-S6); SF126 cells): no significant changes
- content of p-S6 protein (activity of mTOR pathway) (mTOR pathway (p-S6); WSU-DLCL2 cells): decreased
- IC50 (SNU-398): 4.17 µM
- IC50 (CHL-1): 7.68 µM
- IC50 (22RV1): 2.53 µM
- IC50 (NCI-H2081): 13.9 µM
- IC50 (AM-38): 10.3 µM
- IC50 (PANC-1): 12 µM
- IC50 (LS 180): 8.9 µM
- IC50 (HH): 2.67 µM
- IC50 (HCC15): 2.26 µM
- IC50 (U-87 MG): 12.3 µM
